According to patent publication US20230105212A1, “BIPHENYL DERIVATIVE INHIBITOR, PREPARATION METHOD THEREFOR AND USE THEREOF” (SHANGHAI HANSOH BIOMEDICAL CO., LTD., priority 2020, published 2023):

Legend:
[1] = Pharmacokinetic test of plasma and tumor of tumor-bearing nude mice; assay type: in vivo; conditions: tumor-bearing nude mice, p.o. 30 mg/kg; for Kp: female, mouse, tumor/plasma, po, read-out: Tumor plasma ratio
Protocol: Test Embodiment 7. Pharmacokinetic Test of Plasma and Tumor of Tumor-Bearing Nude Mice
Taking tumor-bearing nude mice as the test animals, the pharmacokinetic behavior in the plasma and tumor of tumor-bearing nude mice of the following compound embodiments was studied when orally administered at a dose of 30 mg/kg.
Tumor-bearing nude mouse 21/embodiment, female, Shanghai B&K Laboratory Animal Co., Ltd., animal production license number (SCXK (Shanghai) 2013-0006 No. 311620400001794).
0.5% HPMC (1% Tween 80), dissolved by sonication, to prepare a clear solution or a homogeneous suspension.
Tumor-bearing nude mice, female; p.o. after overnight fasting, respectively, at a dose of 30 mg/kg, administered in a volume of 10 mL/kg.
Before and after administration of tumor-bearing nude mice, at 0, 1, 2, 4, 6, 8, 16 and 24 hours, 0.1 mL of blood was collected from the orbit, placed in an EDTA-K2 test tube, and centrifuged at 6000 rpm at 4° C. for 6 min to separate the plasma. After dissection, the tumor tissue was weighed and stored at −80° C.
1) Tumor tissue was homogenized with methanol and water at a ratio of 1:3, and then centrifuged to get the supernatant. 40 μL of tumor homogenate supernatant and 40 μL of plasma sample were added to 160 μL of acetonitrile for precipitation, and after mixing, centrifuged at 3500×g for 5 to 20 minutes.
2) 100 μL of the supernatant solution after treatment was taken for LC/MS/MS to analyze the concentration of the compounds to be tested.
2.7 Liquid Phase Analysis • Liquid phase condition: Shimadzu LC-20AD pump • MS conditions: AB Sciex API 4000 Mass Spectrometer • Chromatographic column: phenomenex Gemiu 5 μm C18 50×4.6 mm • Mobile phase: A solution was aqueous 0.1% formic acid solution, B solution was acetonitrile • Flow rate: 0.8 mL/min • Elution time: 0 to 4.0 minutes, the eluent was as follows:
The main parameters of pharmacokinetics were calculated with WinNonlin 8.2, and the results of the tumor-bearing nude mice pharmacokinetic experiments were shown in the following table: […]

MC38-hPDL1 cells = experiment: In vitro cytotoxicity on MC38-hPDL1 cells (CellTiter-Glo); assay type: cell-based, mouse; conditions: for MC38-hPDL1 inhibition rate (%): 72 hours; for IC50: Mus musculus, MC38-hPD-L1, 72 hours
Protocol: (§1) Test Embodiment 5. In Vitro Cytotoxicity of the Compounds of the Present Disclosure on NFAT-Luc2/PD1 Jurkat Cells and MC38-hPDL1 Cells
(§2) Experimental purpose: To test the in vitro cytotoxicity of compounds on NFAT-luc2/PD1 Jurkat cells and MC38-hPDL1 cells.
(§3) When the cells were cultured to an appropriate degree of confluency, the cells were collected, and the cells was adjusted in an appropriate cell concentration by complete medium, then the cell suspension was plated in a 96-well plate, 90 μL per well, and put in a 37° C., 5% CO2 incubator overnight; compound solutions of different concentrations were prepared by DMSO and medium, and a vehicle control was set; compound solutions were added to a 96-well plate, 10 μL per well, and put in a 37° C., 5% CO2 incubator and cultured for 72 hours. After that, CellTiter-Glo solution was added, the mixture was shaken and mixed evenly, incubated in the dark for 10 minutes, and a BioTek Synergy H1 microplate reader was used for reading.
(§4) Luminescence signal value was used to calculate the inhibition rate, and the concentration and inhibition rate were fitted by nonlinear regression curve using Graphpad Prism software to obtain IC50 values, as shown in the following table: […]

[2] = tested on: NFAT-luc2/PD1 Jurkat cells; experiment: In vitro cytotoxicity on NFAT-luc2/PD1 Jurkat cells (CellTiter-Glo); assay type: cell-based; conditions: 72 hours; for IC50: Homo sapiens, Jurkat
Protocol: as §1, §2, §3, §4

[3] = Plasma protein binding rate (equilibrium dialysis); assay type: in vitro ADME; conditions: mouse plasma, equilibrium dialysis 37° C. 5 hours
Protocol: Test Embodiment 8. Plasma Protein Binding Rate Experiment
The purpose of this experimental method was to detect the plasma protein binding of the embodiment compounds in plasma.
The frozen plasma was thawed at room temperature or in a water bath at 37° C., then centrifuged at 3500 rpm for 5 min, and the supernatant was taken.
Preparation of compound working solution: Stock solutions were diluted with DMSO to a final concentration of 1 mM.
2.5 μL of compound working solution was added to 497.5 μL of blank plasma to a final concentration of 5 μM, shaked and mixed well.
1) The equilibrium dialysis device was prepared, and the detection membrane device was put into the equilibrium dialysis 96-well plate;
2) 200 μL of the prepared plasma solution was added to the membrane, n=2;
3) another 5 μL of plasma solution was taken, diluted 10 times with 45 μL of blank plasma of the same species, and 200 μL of acetonitrile termination solution containing internal standard was added, and stored in a −20° C. refrigerator;
4) 350 μL of dialysate (100 mM phosphate buffer) was added outside the membrane;
5) the dialysis plate was sealed and incubated in a 37° C. water bath for 5 hours;
6) after dialysis, 5 μL was taken out from the sample hole in the membrane, and diluted 10 times with 45 μL of blank plasma of the same species; 50 μL of dialysate was taken out from the sample hole outside the membrane, and 200 μL of acetonitrile termination solution containing internal standard was added;
7) the supernatant was taken after sample centrifugation;

| SMILES | Kp [1] | Drug concentration in plasma [1] | Drug concentration in tumor [1] | MC38-hPDL1 inhibition rate (%) (MC38-hPDL1 cells) | IC50 (MC38-hPDL1 cells) | Jurkat-PD1 inhibition rate (%) [2] | IC50 [2] | fraction unbound at 5 h, 5 μM [3] |
| --- | --- | --- | --- | --- | --- | --- | --- | --- |
| COc1nc(-c2cccc(-c3cccc(NC(=O)c4nc5c(n4C)CCN(C)C5)c3Cl)c2Cl)ccc1CN1CC(C(=O)N(C)C)C1 [Embodiment 183, N-(2,2′-Dichloro-3′-(5-((3-(dimethylcarbamoyl)azetidin-1-yl)methyl)-6-methoxypyridin-2-yl)-[1,1′-biphenyl]-3-yl)-1,5-dimethyl-4,5,6,7-tetrahydro-1H-imidazo[4,5-c]pyridine-2-carboxamide] | 2.3 | 309 ng/mL | 697 ng/mL | 14% | > 10 µM | 71% | 5.82 µM | – |
| COc1nc(-c2cccc(-c3cccc(NC(=O)c4nc5c(n4C)CCN(C)C5)c3Cl)c2Cl)ccc1CN[C@H]1CCOC[C@@H]1O (relative stereo) [Embodiment 175, N-(2,2′-Dichloro-3′-(5-((((3,4-trans)-3-hydroxytetrahydro-2H-pyran-4-yl)amino)methyl)-6-methoxypyridin-2-yl)-[1,1′-biphenyl]-3-yl)-1,5-dimethyl-4,5,6,7-tetrahydro-1H-imidazo[4,5-c]pyridine-2-carboxamide] | 2.1 | 485 ng/mL | 1009 ng/mL | – | – | – | – | 0.0052 |
| COc1nc(-c2cccc(-c3cccc(NC(=O)c4nc5c(n4C)CCN(C)C5)c3Cl)c2Cl)ccc1CN1CC(NC(C)=O)C1 [Embodiment 180, N-(3′-(5-((3-Acetylaminoazetidin-1-yl)methyl)-6-methoxypyridin-2-yl)-2,2′-dichloro-[1,1′-biphenyl]-3-yl)-1,5-dimethyl-4,5,6,7-tetrahydro-1H-imidazo[4,5-c]pyridine-2-carboxamide] | – | – | – | – | – | – | – | 0.0044 |
| COc1nc(-c2cccc(-c3cccc(NC(=O)c4nc5c(n4C)CCN(C)C5)c3Cl)c2Cl)cnc1CN1CC(NC(C)=O)C1 [Embodiment 218, N-(3′-(5-((3-Acetylaminoazetidin-1-yl)methyl)-6-methoxypyrazin-2-yl)-2,2′-dichloro-[1,1′-biphenyl]-3-yl)-1,5-dimethyl-4,5,6,7-tetrahydro-1H-imidazo[4,5-c]pyridine-2-carboxamide] | – | – | – | 51% | 9.35 µM | 85% | 4.32 µM | – |
| COc1nc(-c2cccc(-c3cccc(NC(=O)c4nc5c(n4C)CCN(C)C5)c3Cl)c2Cl)cnc1CN1CC2(C1)CN(C(C)=O)C2 [Embodiment 152, N-(3′-(5-((6-Acetyl-2,6-diazaspiro[3.3]heptan-2-yl)methyl)-6-methoxypyrazin-2-yl)-2,2′-dichloro-[1,1′-biphenyl]-3-yl)-1,5-dimethyl-4,5,6,7-tetrahydro-1H-imidazo[4,5-c]pyridine-2-carboxamide] | 4.6 | 153 ng/mL | 707 ng/mL | 15% | > 10 µM | 97% | 4.46 µM | 0.0181 |
| COc1nc(-c2cccc(-c3cccc(NC(=O)c4nc5c(n4C)CCN(C)C5)c3Cl)c2Cl)ccc1CN1CC2(C1)CN(C(=O)C(C)C)C2 [Embodiment 186, N-(2,2′-Dichloro-3′-(5-((6-isobutyryl-2,6-diazaspiro[3.3]heptan-2-yl)methyl)-6-methoxypyridin-2-yl)-[1,1′-biphenyl]-3-yl)-1,5-dimethyl-4,5,6,7-tetrahydro-1H-imidazo[4,5-c]pyridine-2-carboxamide] | – | – | – | – | – | – | – | 0.003 |
| COc1nc(-c2cccc(-c3cccc(NC(=O)c4nc5c(n4C)CCN(C)C5)c3Cl)c2Cl)ncc1CN1CC(CO)C1 [Embodiment 223, N-(2,2′-Dichloro-3′-(5-((3-(hydroxymethyl)azetidin-1-yl)methyl)-4-methoxypyrimidin-2-yl)-[1,1′-biphenyl]-3-yl)-1,5-dimethyl-4,5,6,7-tetrahydro-1H-imidazo[4,5-c]pyridine-2-carboxamide] | 3.5 | 432 ng/mL | 1504 ng/mL | 2% | > 10 µM | 77% | 4.77 µM | – |
| COc1nc(-c2cccc(-c3cccc(NC(=O)c4nc5c(n4C)CCN(C)C5)c3Cl)c2Cl)ncc1CN1CC(CNC(C)=O)C1 [Embodiment 225, N-(3′-(5-((3-(Acetylaminomethyl)azetidin-1-yl)methyl)-4-methoxypyrimidin-2-yl)-2,2′-dichloro-[1,1′-biphenyl]-3-yl)-1,5-dimethyl-4,5,6,7-tetrahydro-1H-imidazo[4,5-c]pyridine-2-carboxamide] | – | – | – | 1% | > 10 µM | 51% | 9.07 µM | – |
| COc1nc(-c2cccc(-c3cccc(NC(=O)c4nc5c(n4C)CCN(C)C5)c3Cl)c2Cl)ccc1CN1CC(O)(CO)C1 [Embodiment 173, N-(2,2′-Dichloro-3′-(5-((3-hydroxy-3-(hydroxymethyl)azetidin-1-yl)methyl)-6-methoxypyridin-2-yl)-[1,1-biphenyl]-3-yl)-1,5-dimethyl-4,5,6,7-tetrahydro-1H-imidazo[4,5-c]pyridine-2-carboxamide] | 2.2 | 291 ng/mL | 628 ng/mL | – | – | – | – | – |
| CCC(=O)N1CC2(CN(Cc3ccc(-c4cccc(-c5cccc(NC(=O)c6nc7c(n6C)CCN(C)C7)c5Cl)c4Cl)nc3OC)C2)C1 [Embodiment 188, N-(2,2′-Dichloro-3′-(6-methoxy-5-((6-propionyl-2,6-diazaspiro[3.3]heptan-2-yl)methyl)pyridin-2-yl)-[1,1′-biphenyl]-3-yl)-1,5-dimethyl-4,5,6,7-tetrahydro-1H-imidazo[4,5-c]pyridine-2-carboxamide] | – | – | – | – | – | – | – | 0.0052 |
| COc1nc(-c2cccc(-c3cccc(NC(=O)c4nc5c(n4C)CCN(C)C5)c3Cl)c2Cl)ccc1CNC(CO)CO [Embodiment 174, N-(2,2′-Dichloro-3′-(5-(((1,3-dihydroxypropan-2-yl)amino)methyl)-6-methoxypyridin-2-yl)-[1,1′-biphenyl]-3-yl)-1,5-dimethyl-4,5,6,7-tetrahydro-1H-imidazo[4,5-c]pyridine-2-carboxamide] | 2.4 | 291 ng/mL | 697 ng/mL | – | – | – | – | – |
| COc1nc(-c2cccc(-c3cccc(NC(=O)c4nc5c(n4C)CCN(C)C5)c3Cl)c2Cl)ccc1CN1CC2(COC2)C1 [Embodiment 124, N-(3′-(5-((2-Oxa-6-azaspiro[3.3]heptan-6-yl)methyl)-6-methoxypyridin-2-yl)-2,2′-dichloro-[1,1′-biphenyl]-3-yl)-1,5-dimethyl-4,5,6,7-tetrahydro-1H-imidazo[4,5-c]pyridine-2-carboxamide] | – | – | – | – | – | – | – | 0.0057 |
